Experimental data from patent publication US8545830B2, “Multi-functional polymeric materials and their uses” (University of Tennessee Research Foundation, priority 2003, dated 2013).

Experiment: In vitro release of model drugs methylene blue and BSA from NIPAAm-co-Dex-lactateHEMA hydrogel
Format: physicochemical
Settings: methylene blue from NIPAAm-co-Dex-lactateHEMA gel 5/4 (FIG. 9), PBS pH 7.4, 37° C.
Experimental: To test the potential of the developed hydrogels as drug release devices, two model drugs (22.5 mg) were loaded during the hydrogel synthesis, which were methylene blue and bovine serum albumin (BSA), representing small molecules and protein drugs, respectively. BSA- or methylene blue-loaded dry gels were immersed in a certain volume of PBS (pH 7.4) at 25 or 37° C. At selected time points, small volume of samples were taken and tested for solute concentration. The same volume of fresh PBS (pH 7.4) was replaced to maintain a constant volume of release medium. Concentration of methylene blue was measured by a UV spectrophotometer at 668 nm. Concentration of BSA was determined through Bradford protein assay.

loaded drug released in initial burst: more than 70% | time after which drug release reached a stable stage: three
Structure (SMILES): CN(C)c1ccc2nc3ccc(=[N+](C)C)cc-3sc2c1 [methylene blue]
